In the NIST ThermoML archive (doi:10.1021/acs.jced.5b00156):

Assays:
[1] = refractive index (Na D-line) (dimensionless); conditions: 101.33 kPa, Liquid, Standard Abbe refractometry
[2] = 101.33 kPa, Liquid; for viscosity: Concentric cylinders viscometry; for mass density: vibrating tube

COC(=O)c1ccccc1C(=O)OC [dimethyl 1,2-benzenedicarboxylate]
Conditions	mass density, [2] [kg/m3]	refractive index, [1]	viscosity, [2] [mPa·s]
288.15 K	1196.23	1.51708	23.53
293.15 K	1191.54	1.51494	17.7
298.15 K	1186.87	1.51286	13.93
303.15 K	1182.2	1.51083	11.15
308.15 K	1177.55	1.50885	9.123
313.15 K	1172.91	1.50693	7.612
318.15 K	1168.28	1.50507	6.453
323.15 K	1163.65	1.50303	5.578

COC(=O)CCCCC(=O)OC [dimethyl 1,6-hexanedioate]
Conditions	mass density, [2] [kg/m3]	refractive index, [1]	viscosity, [2] [mPa·s]
288.15 K	1066.79	1.43082	3.778
293.15 K	1061.92	1.42876	3.313
298.15 K	1057.05	1.42669	2.937
303.15 K	1052.18	1.42463	2.629
308.15 K	1047.3	1.42255	2.366
313.15 K	1042.41	1.42048	2.143
318.15 K	1037.52	1.41835	1.953
323.15 K	1032.62	1.41631	1.794
